{"source": "patent US11690854B2", "about": "“Methods of treating heavy menstrual bleeding” (priority 2018, dated 2023)", "key": {"[1]": {"test": "Drug interaction studies: co-administered drug pharmacokinetics in the presence of elagolix", "conditions": "for Effect of co-administration of ELAGOLIX on concentration of concomitant drug (direction of the change in AUC): established drug interactions", "procedure": "(§1) Drug interaction studies were performed with ELAGOLIX and other drugs that are likely to be co-administered and with drugs commonly used as probes for pharmacokinetic interactions."}, "[2]": {"conditions": "for Drugs with no observed clinically significant interactions with ELAGOLIX: co-administration with ELAGOLIX", "procedure": "as §1"}, "[3]": {"conditions": "Ethinyl estradiol 35 mcg and triphasic norgestimate 0.18/0.215/0.25 mg once daily, elagolix 150 ms once daily, N 21"}}, "data": [{"smiles": "C#C[C@]1(O)CC[C@H]2[C@@H]3CCC4=CC(=NO)CC[C@@H]4[C@H]3CC[C@@]21CC", "note": "(mixture of isomers) [Norelgestromin]", "values": [{"measurement": "Ratio of co-administered drug AUC, with elagolix vs medication alone", "setting": "[1]; [3]", "result": 0.85}, {"measurement": "Ratio of co-administered drug Cmax, with elagolix vs medication alone", "setting": "[1]; [3]", "result": 0.87}]}, {"smiles": "C#CC1(O)CC[C@H]2[C@@H]3CCC4=CC(=O)CC[C@@H]4[C@H]3CC[C@@]21CC", "note": "(mixture of isomers) [Norgestrel]", "values": [{"measurement": "Ratio of co-administered drug AUC, with elagolix vs medication alone", "setting": "[1]; [3]", "result": 0.92}, {"measurement": "Ratio of co-administered drug Cmax, with elagolix vs medication alone", "setting": "[1]; [3]", "result": 0.89}]}, {"smiles": "C[C@H]1O[C@@H](O[C@H]2[C@@H](O)C[C@H](O[C@H]3[C@@H](O)C[C@H](O[C@H]4CC[C@@]5(C)[C@H](CC[C@@H]6[C@@H]5C[C@@H](O)[C@]5(C)[C@@H](C7=CC(=O)OC7)CC[C@]65O)C4)O[C@@H]3C)O[C@@H]2C)C[C@H](O)[C@@H]1O", "note": "[Digoxin]", "values": [{"measurement": "Ratio of co-administered drug AUC, with elagolix vs medication alone", "setting": "[1]; Digoxin 0.5 mg single dose, elagolix 200 ms twice daily × 10 days, N 11, 90% CI 1.17-1.35", "result": 1.26}, {"measurement": "Ratio of co-administered drug Cmax, with elagolix vs medication alone", "setting": "[1]; Digoxin 0.5 mg single dose, elagolix 200 ms twice daily × 10 days, N 11, 90% CI 1.53-1.91", "result": 1.71}, {"measurement": "Effect of co-administration of ELAGOLIX on concentration of concomitant drug (direction of the change in AUC)", "setting": "[1]", "result": "↑ digoxin"}]}, {"smiles": "C#C[C@]1(O)CC[C@H]2[C@@H]3CCc4cc(O)ccc4[C@H]3CC[C@@]21C", "note": "[Ethinyl Estradiol]", "values": [{"measurement": "Ratio of co-administered drug AUC, with elagolix vs medication alone", "setting": "[1]; [3]", "result": 1.30}, {"measurement": "Ratio of co-administered drug Cmax, with elagolix vs medication alone", "setting": "[1]; [3]", "result": 1.15}]}, {"smiles": "CC(=O)N1CCN(c2ccc(OCC3COC(Cn4ccnc4)(c4ccc(Cl)cc4Cl)O3)cc2)CC1", "note": "(centres unmarked) [Ketoconazole]", "values": [{"measurement": "Drugs with no observed clinically significant interactions with ELAGOLIX", "setting": "[2]", "result": "No dose adjustment is required"}]}, {"smiles": "Cc1ncc2n1-c1ccc(Cl)cc1C(c1ccccc1F)=NC2", "note": "[Midazolam]", "values": [{"measurement": "Ratio of co-administered drug AUC, with elagolix vs medication alone", "setting": "[1]; Midazolam 2 mg single dose, elagolix 300 mg twice daily × 11 days, N 20, 90% CI 0.41-0.50", "result": 0.46}, {"measurement": "Ratio of co-administered drug Cmax, with elagolix vs medication alone", "setting": "[1]; Midazolam 2 mg single dose, elagolix 300 mg twice daily × 11 days, N 20, 90% CI 0.51-0 62", "result": 0.56}, {"measurement": "Ratio of co-administered drug AUC, with elagolix vs medication alone", "setting": "[1]; Midazolam 2 mg single dose, elagolix 150 ms once daily × 13 days, N 11, 90% CI 0.58-0.72", "result": 0.65}, {"measurement": "Ratio of co-administered drug Cmax, with elagolix vs medication alone", "setting": "[1]; Midazolam 2 mg single dose, elagolix 150 ms once daily × 13 days, N 11, 90% CI 0.74-0.89", "result": 0.81}, {"measurement": "Effect of co-administration of ELAGOLIX on concentration of concomitant drug (direction of the change in AUC)", "setting": "[1]", "result": "↓ midazolam"}]}, {"smiles": "CO[C@H]1/C=C/O[C@@]2(C)Oc3c(C)c(O)c4c(O)c(c(/C=N/N5CCN(C)CC5)c(O)c4c3C2=O)NC(=O)/C(C)=C\\C=C\\[C@H](C)[C@H](O)[C@@H](C)[C@@H](O)[C@@H](C)[C@H](OC(C)=O)[C@@H]1C", "note": "[Rifampin]", "values": [{"measurement": "Effect of concomitant drug on elagolix (direction of the change in AUC)", "setting": "[2]; established drug interactions", "result": "↑ elagolix"}]}, {"smiles": "CC(C)c1nc(N(C)S(C)(=O)=O)nc(-c2ccc(F)cc2)c1/C=C/[C@@H](O)C[C@@H](O)CC(=O)O", "note": "[Rosuvastatin]", "values": [{"measurement": "Ratio of co-administered drug AUC, with elagolix vs medication alone", "setting": "[1]; Rosuvastatin 20 mg once daily, elagolix 300 mg twice daily × 7 days, N 10, 90% CI 0.50-0.71", "result": 0.60}, {"measurement": "Ratio of co-administered drug Cmax, with elagolix vs medication alone", "setting": "[1]; Rosuvastatin 20 mg once daily, elagolix 300 mg twice daily × 7 days, N 10, 90% CI 0.73-1.35", "result": 0.99}, {"measurement": "Effect of co-administration of ELAGOLIX on concentration of concomitant drug (direction of the change in AUC)", "setting": "[1]", "result": "↓ rosuvastatin"}]}, {"smiles": "CN[C@H]1CC[C@@H](c2ccc(Cl)c(Cl)c2)c2ccccc21", "note": "[sertraline]", "values": [{"measurement": "Drugs with no observed clinically significant interactions with ELAGOLIX", "setting": "[2]", "result": "No dose adjustment is required"}]}]}
